Legend:
P4HA3 mRNA [1] = assay: P4HA3 knockdown by siRNA in myofibroblasts isolated from the infarcted area, real-time RT-PCR; assay type: cell-based, mouse; settings: siRNA 3.125 nM, versus si Ctrl, FIG. 4
Description: (§1) The mRNA expression levels of P4HA3 etc. in the examples of the present specification were quantified as follows. The concentration of purified RNA was determined using a microspectrophotometer DS-11 (DeNovix), and reverse transcription to cDNA was performed using a High Capacity cDNA Reverse Transcription Kit (Applied Biosystems). Quantification of mRNA was performed according to the protocol of Luna Universal qPCR Master Mix (New England BioLabs), with DNA polymerase activation at 95° C. for 60 seconds, followed by 45 cycles of cDNA denaturation at 95° C. for 15 seconds and extension at 60° C. for 30 seconds. Analysis was performed by the AACt method using GAPDH as an internal standard. Mouse Cyp7al probe was purchased from Applied Biosystems. […]
(§2) Next, the inventors investigated the effect of suppressing P4HA3 mRNA expression on the mRNA expression of other fibrosis-related factors. […] The quantification of mRNA expression levels of P4HA3, etc. in myofibroblasts after siRNA treatment was performed in the same manner as in Example 2.

[2] = test system: periostin, 1α1 collagen and 3α1 collagen mRNA expression in myofibroblasts; assay: Effect of P4HA3 knockdown on fibrosis-related factor mRNA in myofibroblasts isolated from the infarcted area, real-time RT-PCR; assay type: cell-based, mouse; settings: siRNA 3.125 nM, versus si Ctrl, FIG. 4
Description: (§3) The mRNA expression levels of P4HA3 etc. in the examples of the present specification were quantified as follows. The concentration of purified RNA was determined using a microspectrophotometer DS-11 (DeNovix), and reverse transcription to cDNA was performed using a High Capacity cDNA Reverse Transcription Kit (Applied Biosystems). Quantification of mRNA was performed according to the protocol of Luna Universal qPCR Master Mix (New England BioLabs), with DNA polymerase activation at 95° C. for 60 seconds, followed by 45 cycles of cDNA denaturation at 95° C. for 15 seconds and extension at 60° C. for 30 seconds. Analysis was performed by the AACt method using GAPDH as an internal standard. Mouse Cyp7al probe was purchased from Applied Biosystems. Primers and probes for mouse α-smooth muscle actin (α-SMA), CD68, 1α1 collagen (Col1α1), 1α2 collagen (Col1α2), 1α3 collagen (Col1α3), 6α1 collagen (Col6α1), 8α1 collagen (Co81α1), GAPDH (glyceraldehyde-3-phosphate dehydrogenase), heat shock protein 47 (Hsp47), prolyl 4-hydroxylase alphal subunit (P4HA1), prolyl 4-hydroxylase alpha2 subunit (P4HA2), and prolyl 4-hydroxylase alpha3 subunit (P4HA3) were purchased from Sigma-Aldrich.
Next, the inventors investigated the effect of suppressing P4HA3 mRNA expression on the mRNA expression of other fibrosis-related factors. Myofibroblasts from the infarcted area of myocardial infarction disease model mice were cultured as described above in Nakaya, M. et al. (2017). Briefly, 3 days after coronary artery ligation, the ventricles of treated mice were digested with PBS containing 0.1% collagenase A (Roche Diagnostics) and 0.1% trypsin (Sigma-Aldrich) at 37° C. with agitation. The cells were placed on plates containing 10% FBS/DMEM overnight, and then the medium was replaced to remove non-adherent cells. The attached cells were cultured for more than 6 days and used as myofibroblasts in the following experiments. […] The quantification of mRNA expression levels of P4HA3, etc. in myofibroblasts after siRNA treatment was performed in the same manner as in Example 2.

P4HA3 mRNA [3] = assay: siRNA treatment of myofibroblasts from carbon tetrachloride-induced fibrotic liver, P4HA3 mRNA by real-time RT-PCR; assay type: cell-based, mouse; settings: versus si Ctrl
Description: as §3
As in Example 3, the effect of suppressing P4HA3 mRNA expression on the mRNA expression of other fibrosis-related factors was examined in cultured myofibroblasts isolated from the liver 4 weeks after the start of carbon tetrachloride administration. The liver was removed from a mouse model of carbon tetrachloride (CCl4)-induced fibrotic livers and divided into small pieces. After that, the liver pieces were washed with washing buffer [25 mM HEPES/[…]/HBSS(-)], and the cell solution containing myofibroblasts was collected by shaking the liver pieces three times for 30 min at 37° C. in . . . digestion buffer [0.1% Collagenase A/15 mM HEPES/HBSS(-)]. After that, blood cell components were removed with Red Blood Cell Lysis Buffer, and the cells were suspended in 10% FBS/1% Penicillin-Streptomycin/DMEM, and then seeded on a culture plate. After 6 hr, the medium was replaced to remove non-adherent cells and debris. After that, the cells were cultured overnight in a CO2 incubator, and non-adherent cells were again removed by washing with PBS, and adherent cells were collected using Accutase. After 20 min of reaction with CD45 antibody labeled with magnetic beads, CD45-positive blood cells were removed by MACS (magnetic cell sorting) using an LS column, and CD45-negative cells were collected as myofibroblasts. After that, the purity of the isolated myofibroblasts was measured using FACS verse, and almost all of the CD45-negative cells after MACS were positive for α-SMA, a myofibroblast marker, and almost no contamination with blood cells was observed. […]

[4] = test system: mRNA expression of fibrosis-related factors (collagens, elastin) in myofibroblasts; assay: siRNA treatment of myofibroblasts from carbon tetrachloride-induced fibrotic liver, fibrosis-related factor mRNA by real-time RT-PCR; assay type: cell-based, mouse
Description: as §3
As in Example 3, the effect of suppressing P4HA3 mRNA expression on the mRNA expression of other fibrosis-related factors was examined in cultured myofibroblasts isolated from the liver 4 weeks after the start of carbon tetrachloride administration. The liver was removed from a mouse model of carbon tetrachloride (CCl4)-induced fibrotic livers and divided into small pieces. After that, the liver pieces were washed with washing buffer [25 mM HEPES/[…]/HBSS(-)], and the cell solution containing myofibroblasts was collected by shaking the liver pieces three times for 30 min at 37° C. in . . . digestion buffer [0.1% Collagenase A/15 mM HEPES/HBSS(-)]. After that, blood cell components were removed with Red Blood Cell Lysis Buffer, and the cells were suspended in 10% FBS/1% Penicillin-Streptomycin/DMEM, and then seeded on a culture plate. After 6 hr, the medium was replaced to remove non-adherent cells and debris. After that, the cells were cultured overnight in a CO2 incubator, and non-adherent cells were again removed by washing with PBS, and adherent cells were collected using Accutase. After 20 min of reaction with CD45 antibody labeled with magnetic beads, CD45-positive blood cells were removed by MACS (magnetic cell sorting) using an LS column, and CD45-negative cells were collected as myofibroblasts. After that, the purity of the isolated myofibroblasts was measured using FACS verse, and almost all of the CD45-negative cells after MACS were positive for α-SMA, a myofibroblast marker, and almost no contamination with blood cells was observed. Si P4HA3 #1 and si P4HA3 #2, ThermoFisher Scientific catalog numbers 4390771 and 4390771 (Assay ID: s115723 and s115721), were added to the myofibroblast culture at a final concentration of 3.125 nM using Lipofectamine RNAiMAX (Invitrogen). In experiments in which si P4HA3 #2 was not used, such as in Example 3, si P4HA3 #1 was used as “si P4HA3”. For siRNA control experiments, Silencer Select Negative Control no. 1 siRNA (ThermoFisher Scientific, catalog number: 4390843) was used as si Ctrl. The nucleotide sequences of the sense and antisense strands of si P4HA3 #1 are listed in the sequence listing attached hereto as SEQ ID NOs: 1 and 2, respectively. The nucleotide sequences of the sense and antisense strands of si P4HA3 #2 are listed in the sequence listing attached hereto as SEQ ID NOs: 3 and 4, respectively.
Si Hsp47 and si P4HA3 #1 from Example 7 were used as knockdown reagents for Hsp47 and P4HA3, respectively. For si Hsp47, ThermoFisher Scientific catalog number 4390771 (Assay ID: s232335) was used. Separation of cell type fractions from livers collected 4 weeks after the start of carbon tetrachloride administration was performed in the same manner as in Example 6. […]

P4HA3 mRNA [5] = assay: P4HA3 knockdown in myofibroblasts from lungs of bleomycin-administered pulmonary fibrosis model mice, real-time RT-PCR; assay type: cell-based, mouse; settings: FIG. 11-2
Description: as §1, §2
From the bleomycin-administered pulmonary fibrosis model mouse prepared in the same manner as in Example 4, the lungs were removed 7 days after bleomycin administration. […] Quantification of the mRNA expression levels of Cd68, a blood cell marker, 1α1 collagen, a fibrosis-related factor, and P4HA3 was performed in the same manner as in Example 2. […]

[6] = test system: 1α1, 3α1 and 14α1 collagen mRNA expression in myofibroblasts; assay: Effect of P4HA3 knockdown on fibrosis-related factor mRNA in myofibroblasts from fibrotic lungs, real-time RT-PCR; assay type: cell-based, mouse; settings: myofibroblasts from pulmonary fibrosis model mice; versus si Ctrl; FIG. 11-2
Hsp47 mRNA = assay: siRNA treatment of myofibroblasts from carbon tetrachloride-induced fibrotic liver, Hsp47 mRNA by real-time RT-PCR; assay type: cell-based, mouse; settings: myofibroblasts from damaged fibrotic liver; FIG. 21-1 A
Description: as §1
As in Example 3, the effect of suppressing P4HA3 mRNA expression on the mRNA expression of other fibrosis-related factors was examined in cultured myofibroblasts isolated from the liver 4 weeks after the start of carbon tetrachloride administration. […] After that, the purity of the isolated myofibroblasts was measured using FACS verse, and almost all of the CD45-negative cells after MACS were positive for α-SMA, a myofibroblast marker, and almost no contamination with blood cells was observed. […]

[7] = test system: P4HA3 and 1α1 collagen (Col1α1) mRNA expression in LX-2 cells; assay: TGFβ treatment of cultured LX-2 hepatic stellate cell line, mRNA by real-time RT-PCR; assay type: cell-based; settings: TGFβ 5 ng/mL for 12 hr, FIG. 26a
From the text: (§4) Hepatic stellate cells, which are involved in liver fibrosis, are known to be activated by TGFβ (Fabregat, I. et al., FEBS J., 283:2219-2232 (2016)). Therefore, the effects of TGFβ and its specific inhibitor SIS3, as well as an inhibitor of SMAD3 involved in signal transduction of the TGFβ pathway (si SMAD3), on the mRNA expression of fibrosis-related factors in […] were examined. SIS3 (CAS number: 1009104-85-1) was used under catalog number 15945 from Cayman Chemical Company. SIS3 was added to the culture medium at a final concentration of 3 μM and administered. Si SMAD3 was used as a knockdown reagent for SMAD3. si SMAD3 was used under catalog number 4390771 (Assay ID: s69495) from ThermoFisher Scientific. si SMAD3 was administered to cultured cells in the same manner as in Examples 3, 7, and 13. LX-2, a cultured hepatic stellate cell line, was cultured in DMEM supplemented with 2% FBS.
First, the effect of TGFβ on the mRNA expression of P4HA3 or 1α1 collagen (Col1α1) in the cultured LX-2 cells was examined. FIG. 26a is a bar graph showing the mRNA expression level of P4HA3 or 1α1 collagen (Col1α1) in LX-2 cells treated with DMSO or TGFβ (5 ng/ML) for 12 hr. […] The number of samples for each group was 3. […] Error bars indicate standard deviation.

TGFβ/SMAD pathway = assay: SIS3 treatment of myofibroblasts from carbon tetrachloride-induced fibrotic liver, mRNA by real-time RT-PCR; assay type: cell-based, mouse; settings: myofibroblasts from CCl4 liver fibrosis model; SIS3 3 μM; P4HA3, Col1α1, Col1α2, Col3α1; FIG. 26b
From the text: as §4
Bar graph showing the mRNA expression levels of P4HA3, 1α1 collagen (Col1α1), 1α2 collagen (Col1α2), and 3α1 collagen (Col3α1) in myofibroblasts isolated from liver tissue of a mouse model of liver damage and liver fibrosis caused by carbon tetrachloride administration and treated with SIS3, an inhibitor of the TGFβ/SMAD pathway. […] The number of samples for each group was 5.

[8] = myofibroblasts from transiently fibrotic liver, siRNA 3.125 nM, versus si Ctrl, FIG. 9

si P4HA3 #1: siRNA #1 against mouse P4HA3, sense/antisense SEQ ID NOs: 1 and 2; ThermoFisher Scientific catalog 4390771, Assay ID s115723 (sense CCACGAGTATGGACAGGAATT; antisense TTCCTGTCCATACTCGTGGAT; listed as DNA, chemistry not given here)
expression of P4HA3 mRNA (P4HA3 mRNA [1]): strongly inhibited
expression of 1α1 collagen mRNA [2]: strongly inhibited
expression of 3α1 collagen mRNA [2]: strongly inhibited
expression of periostin mRNA [2]: strongly inhibited
expression of P4HA3 gene (P4HA3 mRNA [3]; myofibroblasts from CCl4 liver fibrosis model, FIG. 25): almost completely suppressed
mRNA expression of P4HA3 (P4HA3 mRNA [3]; myofibroblasts from transiently fibrotic liver, siRNA 3.125 nM, FIG. 9): inhibited
effect of suppressing the mRNA expression of fibrosis-related factors, si P4HA3 compared with si Hsp47 ([4]; myofibroblasts from CCl4 fibrotic liver, 1α1, 3α1, 8α1, 14α1 collagen, FIG. 20 C to F): stronger effect
effect of suppressing the mRNA expression of fibrosis-related factors, single siRNAs and combination compared ([4]; myofibroblasts from damaged fibrotic liver, 1α1, 1α2, 3α1, 8α1, 14α1 collagen, elastin, FIGS. 21-1 C, D and 21-2 A to D): higher effect
difference in mRNA expression inhibitory effect between si P4HA3 #1 and si P4HA3 #2 for 3α1 collagen and elastin ([4]; myofibroblasts from transiently fibrotic liver, FIG. 9): no significant difference
inhibitory activity for all mRNA expression, si P4HA3 #1 compared with si P4HA3 #2 ([4]; myofibroblasts from transiently fibrotic liver, P4HA3, collagens, elastin, FIG. 9): stronger inhibitory activity than si P4HA3 #2
mRNA expression of 1α1 collagen [4, 8]: inhibited
mRNA expression of other fibrosis-related factors [4, 8]: inhibited
mRNA expression level of P4HA3 reduced to (P4HA3 mRNA [5]; remaining level relative to si Ctrl): less than 5%
P4HA3 mRNA expression (P4HA3 mRNA [5]; versus si Ctrl): very strongly inhibited
mRNA expression level of 1α1 collagen [6]: reduced to a fraction of their original levels
mRNA expression level of 3α1 collagen [6]: reduced to a fraction of their original levels
mRNA expression level of 14α1 collagen [6]: reduced to a fraction of their original levels
Hsp47 mRNA expression (Hsp47 mRNA): slightly suppressed

TGFβ
mRNA expression of 1α1 collagen (Col1α1) [7]: enhanced
mRNA expression of P4HA3 [7]: enhanced

COc1cc2c(cc1OC)CN(C(=O)/C=C/c1c(-c3ccccc3)n(C)c3ncccc13)CC2 [SIS3]
mRNA expression of fibrosis-related factors including P4HA3 (TGFβ/SMAD pathway): suppressed
